Where two headings read alike, the source gives them in different places.

The subject of data set [1] is HIV-1 (HIV-luc/JRFL). As to the kind of experiment: microbe, parasite or virus in culture. The class given is cell-based. Conditions: for EC50: read-out: anti-HIV activity EC50 (50% effective concentration). The text has this:
The plasmids used for packaging pseudotyped single-cycle infectious HIV-1 (HIV-luc/JRFL) are as follows: the plasma pLAI-Aenv-Luc contains HIV-1 isolate in which Env and Vpr genes are deleted and luciferase gene is inserted into the Nef locus; and the plasma pJRFL contains CCR5-tropic HIV-1 env gene; the two plasmas are co-transfected into HEK293T cells; the supernatant was collected, filtered, and packaged; and the virion capture was quantified by […] ELISA.
CD4^+ T cells (Hut/CCR5) were cultured in RPMI 1640 medium (Gibco) containing 10% fetal bovine serum (Gibco), 100 U/mL penicillin (Invitrogen), and 100 […] (Invitrogen). 1×10^5 Hut/CCR5 cells were added to the compound Ia or Ib, infected with HIV-luc/JRFL (1 ng p24gag), incubated at 37° C. for 3 hours, washed to remove free virus, and resuspended in cell culture medium, followed by addition of the corresponding compound to be tested, incubated at 37° C. for 3 days, and collected for measurement of the luciferase activity and calculation of the percentage of viral inhibition.
CD4^+ T cells (Hut/CCR5) were cultured in 1640 medium (Gibco) containing 10% fetal bovine serum (Gibco), 100 U/mL penicillin (Invitrogen), and 100 […] (Invitrogen). 1×10^5 Hut/CCR5 cells were added to the compound Ig-TP (CL-002-TP), infected with HIV-luc/JRFL (1 ng p24gag), incubated at 37° C. for 3 hours, washed to remove free virus, and resuspended in cell culture medium, followed by addition of the corresponding compound to be tested, incubated at 37° C. for 3 days, and collected for measurement of the luciferase activity and calculation of the percentage of virus inhibition.

A short description of data set [2]: Drug concentration in PBMC after oral administration in rhesus monkeys. The class given is in vivo. More on the design: concentration of Ig-TP in PBMC: unit not given here. The settings on record: for Drug concentration in PBMC, Compound 3TC-TP: oral 3TC 20 mg/kg. How it is done: The PBMC was separated from the remaining venous blood with Ficoll-Paque separation medium, condensed to 0.3 mL of cell suspension, counted, and stored frozen below −20° C.
The PBMC sample was crushed with an ultrasonic cell crusher, followed by addition of 3 times volume of acetonitrile, vortexed for 60 seconds, followed by 1 volume of the water, vortexed for 60 seconds, and centrifuged at 3000 rpm for 5 minutes; the supernatant was aspirated, transferred into a 10 mL round-bottom glass tube, dried in a stream of nitrogen at 40° C., and redissolved in 500 μL of methanol solution (methanol: water=2:8 (v/v)); the resulting solution was vortexed for 60 seconds, transferred into a 1.5 mL EP tube, centrifuged at 13000 rpm for 5 minutes, filtered, and centrifuged to obtain […] of supernatant for […] analysis.

In data set [3] the test system is CD4+ T cells (Hut/CCR5). As to the kind of experiment: in vitro. The class given is cell-based. The protocol:
(§1) CD4^+ T cells (Hut/CCR5) were plated into the wells of a 96-well plate ([…]), followed by addition of different compounds to be tested; the 96-well plate was incubated at 37° C. in an incubator for 3 days; 20 μL of MTT solution was added into the wells ([…]) of the 96-well plate; the 96-well plate was incubated at 37° C. in the incubator for 4 hours; 100 μL of Formazan solution was added into the wells of the 96-well plate; the 96-well plate was incubated at 37° C. in the incubator until the complete dissolution of Formazan was observed by a common optical microscope; and the absorbance of the solution was measured at 570 nm (as shown in FIGS. 2 and 4).
(§2) The cytotoxicity of the compound Ig-TP on CD4^+ T cells (Hut/CCR5) was measured using MTT assay.

A short description of data set [4]: Drug concentration in plasma after oral administration in rhesus monkeys. The class given is in vivo. Conditions: oral 6 mg/kg compound Ia, 24 hours.
A short description of data set [5]: in vitro. The class given is cell-based. Conditions: human. The protocol: as §1, §2
The test system of data set [6] is HIV. Conditions: literature (Michailidis et al 2009); read-out: anti-HIV EC50; cited from earlier work.
Where [7] appears, read: Human immunodeficiency virus 1, Hut/CCR5, 72 h.

The term CC50 denotes the concentration giving 50% cytotoxicity. In the case of `[N-]=[N+]=NC1(COP(=O)(O)OP(=O)(O)OP(=O)(O)O)OC(n2ccc(N)nc2=O)CC1O` (stereo not drawn) [Compound Ig-TP], in data set [1] (Hut/CCR5 cells, HIV-luc/JRFL), the “inhibition of HIV viral proliferation IC50” value is 0.373 ng/mL. For the same compound, the EC50 in data set [1] (Hut/CCR5 cells, HIV-luc/JRFL, 3 days) came to 1.3 nM. In addition, in data set [1] (Hut/CCR5 cells, HIV-luc/JRFL, read-out: inhibition of HIV viral proliferation IC50), the IC50 is 1.3 nM. For the same compound, the “Drug concentration in PBMC, Compound Ig-TP” value is 0.39 pmol/10^6 cells in data set [2] (oral compound Ig 1 mg/kg, 1 h); 2.10 pmol/10^6 cells in data set [2] (oral compound Ig 1 mg/kg, 6 h); 0.29 pmol/10^6 cells in data set [2] (oral compound Ig 1 mg/kg, 24 h); 0.66 pmol/10^6 cells in data set [2] (oral compound Ig 1 mg/kg, 72 h); 0.54 pmol/10^6 cells in data set [2] (oral compound Ig 1 mg/kg, 120 h); 0.23 pmol/10^6 cells in data set [2] (oral compound Ig 6 mg/kg, 1 h). Further, the “Drug concentration in PBMC, Compound Ig-TP” value is given as 4.07 pmol/10^6 cells in data set [2] (oral compound Ig 6 mg/kg, 6 h); 0.44 pmol/10^6 cells in data set [2] (oral compound Ig 6 mg/kg, 24 h); 1.85 pmol/10^6 cells in data set [2] (oral compound Ig 6 mg/kg, 72 h); 1.35 pmol/10^6 cells in data set [2] (oral compound Ig 6 mg/kg, 120 h). Besides, in data set [2] (rhesus monkeys, oral 6 mg/kg compound Ig, 120 hours (5 days)), the “concentration of Ig-TP in PBMC” value is given as 1.35. In data set [3], this compound showed a CC50 of 8130 nM. Moreover, in data set [3], the “cytotoxicity CC50” value is reported as 2,328 ng/ml.
Regarding `Nc1ccn([C@@H]2CS[C@H](COP(=O)(O)OP(=O)(O)OP(=O)(O)O)O2)c(=O)n1` [Compound 3TC-TP, reference compound], the “Drug concentration in PBMC, Compound 3TC-TP” value stood at 0.51 pmol/10^6 cells in data set [2] (1 h) and 2.45 pmol/10^6 cells in data set [2] (6 h).
In the case of `C#CC1(CO)OC(n2cnc3c(N)nc(F)nc32)C(F)C1O` (stereo not drawn) [Compound Ia], the “compound Ia in plasma” value in data set [4] was “undetectable”. In addition, the EC50 in data set [1] (setting [7]) was 0.9 nM. Besides, the cytotoxic concentration (CC50) at 3 days in data set [5] was over 8000 nM.
As to `[N-]=[N+]=NC1(CO)OC(n2cnc3c(N)nc(F)nc32)C(F)C1O` (stereo not drawn) [Ib], the EC50 in data set [1] (setting [7]) came to 0.62 nM. In data set [5], this compound gave a CC50 at 3 days of over 149000 nM.
For `C#C[C@]1(CO)O[C@@H](n2cnc3c(N)ncnc32)C[C@@H]1O` [EdA, 4′-ethynyl-2′-deoxyadenosine], the EC50 in data set [6] was 11 nM.

Source of the values: patent publication US12297224B2, “Crystal form, preparation method, and application of 4'-substituted nucleoside” (Henan Genuine Biotech Co., Ltd., priority 2018, dated 2025).
